From patent US5574026A, “Methods for inhibiting angiogenesis proliferation of endothelial or tumor cells and tumor growth” (American Cyanamid Company, priority 1994, dated 1996)
“Also recorded” adds a separate entry of the source.

Key:
tumor = conditions: Teicher et al; used in conjunction with cancer chemotherapy or radiation therapy; cited from earlier work
angiogenesis = conditions: Brem et al; in words; cited from earlier work
[1] = tested on: Adult Bovine Aortic Endothelial (ABAE) cell line; assay: Antiproliferative activity in Adult Bovine Aortic Endothelial (ABAE) cell line, PROTOCOL 3 (4 days, cell count); type: cell-based
Protocol: The antiproliferative activity of the compounds of Formula I in an Adult Bovine Aortic Endothelial (ABAE) cell line and in Human Tumor cells lines is evaluated in three similar assays that measure growth inhibition. The assays are identified as follows:
PROTOCOLS 1, 2, and 3 are described in greater detail hereinbelow. In general, according to PROTOCOLS 1 and 2, the target ABAE and/or Human Tumor cells are exposed to the compounds of Formula I for 48 hours. PROTOCOL 3 exposes ABAE cells to the compounds for 4 days. A detailed description of the Protocols is as follows:
Antiproliferative Activity in Adult Bovine Aortic Endothelial (ABAE) Cell Line
ABAE cells are grown in DMEM media (Mediatech, Washington, D.C.) supplemented with 10% calf serum (Hyclone). ABAE cells are plated in 24-well dishes at 8,000 cells/well, followed by the addition of increasing concentrations of 7-halogen-9-[hydrogen or [(substituted glycyl)amido]]-6-demethyl-6-deoxytetracycline. After four days, the cells are detached and counted. […] The growth inhibition (I) as % of control is calculated as follows: [formula] wherein: Nc is the number of cells in untreated wells;
Nt is the number of cells in treated wells;
No is the number of plated cells.
IC50 of growth inhibition is determined from the sets of I values plotted by Kaleidograph software (Abelbeck Software).
Table 1 presents the results depicting the antiproliferative activity of the compounds of Formula I against an ABAE cell line, as evaluated by PROTOCOL 2 and PROTOCOL 3. The results are presented in terms of IC50 and are as follows.

Compound: CN(C)c1ccc(O)c2c1C[C@H]1C[C@H]3[C@H](N(C)C)C(O)=C(C(N)=O)C(=O)[C@@]3(O)C(O)=C1C2=O [Minocycline, reference compound]
- number of metastases with chemotherapy or radiation therapy (tumor): the number of metastases is reduced
- tumor growth with chemotherapy or radiation therapy (tumor): tumor growth is decreased
- inhibition of angiogenesis (angiogenesis): inhibits angiogenesis to an extent comparable to that of the combination therapy of heparin and cortisone; also recorded: useful as inhibitors of angiogenesis
- IC50 ([1]; Bos taurus, 96 h, ABAE cells, PROTOCOL 3, 4 days, read-out: IC50 PROTOCOL 3): ≥ 50 µg/mL
- activity upon incubation with cells ([1]; FIG. 1, 4 day assay (Protocol 3), in words): losing its activity upon incubation with cells
